In paper PMC10897374, “Synthetic angiotensin II peptide derivatives confer protection against cerebral and severe non-cerebral malaria in murine models” (Scientific Reports, 2024):
Where a SMILES comes first, the peptide text is derived from it. Bridges are numbered along the chain shown (N, C = ends). Where no end group is shown, it is not given here.

Assays:
Plasmodium = settings: same mouse model (ECM), infected mice treated with the ACE inhibitor; cited from earlier work
mouse muscle tissue = settings: cited from earlier work
[1] = tested on: C57BL/6 mice infected with P. berghei ANKA; test: SHIRPA behavioral tests in the ECM model; assay type: in vivo, mouse; settings: day 5 post-infection, difference of scores before and after infection, vs vehicle (PBS)
From the text: C57BL/6 mice were used for the experimental cerebral malaria model, and the assays were defined by the presence of at least two of the following clinical signs of neurological involvement: ataxia, paralysis of the limbs, poor correction reflex, convulsions, and coma. A series of SHIRPA tests (SmithKline Beecham, Harwell, Imperial College, Royal London Hospital, phenotype assessment) was used to evaluate behavioral, motor, and neurological changes during the development of the P. berghei infection. Tests aimed at evaluating cognitive and behavioral parameters were selected to assess brain impairment of the mice. The tests described below were initially performed on animals not yet infected at day 0. Next, the mice were treated and infected as described earlier. Five days after infection, the tests were repeated and the results were expressed as the difference between the sum of the scores before and after infection with P. berghei. […]
After five minutes of the test described above, the animals were transferred to the arena without being touched. The observation of the immediate reactions to the new environment was recorded for thirty seconds and a score was assigned.
While mice were still in the arena, the number of squares of 11 cm^2 of the arena that the animal stepped into with four legs at the same time was quantified for thirty seconds. […]

Plasmodium berghei ANKA [2] = test: Severe non-cerebral malaria model: parasitemia and survival; assay type: in vivo; settings: BALB/c mice
Procedure: (§1) A cryopreserved sample of erythrocytes infected with P. berghei ANKA (kindly provided by Dr. Leonardo J. Carvalho, La Jolla University, San Diego, CA) was thawed and 1 × 10^6 erythrocytes infected with P. berghei ANKA were injected intraperitoneally (i.p.) in the C57BL/6 mice. Parasitemia was monitored from the prepatent period until parasitemia was sufficient for infection of the experimental animal groups (7 male mice per group), i.e., 5–8% parasitemia per mL of blood (injection of 200 µL in each mouse).
The same protocol was performed with 6- to 8-week-old BALB/c mice also provided from FIOCRUZ (8 male mice per group). […] After 3 days, parasitemia was evaluated by blood smear from a droplet of blood collected from the lateral tail vein of each animal and colored with the hematological Diff-Quick® kit. The survival of the animals was also monitored daily. […]
C57BL/6 (cerebral malaria model) and BALB/c (non-cerebral malaria model) mice received a single daily dose (100 ng Kg^−1 min^−1) of Ang II (brown line), Ang II-SS (orange line), VIPF (blue line), or vehicle (PBS, black line) for 5 days. […] Parasitemia was monitored by Diff-Quick stained blood smears from day 3 to day 7 for C57BL/6 mice (A) and from day 3 to day 9 for BALB/c mice (B). Percentage of survival for C57BL/6 mice (C) and BALB/c mice (D) mice was monitored daily starting on day 6 p.i. […]

Plasmodium berghei ANKA [3] = test: Experimental cerebral malaria (ECM) model: parasitemia and survival; assay type: in vivo, C57BL/6 mice
Procedure: Six- to eight-week-old male C57BL/6 mice were provided by the Oswaldo Cruz Foundation (FIOCRUZ—Rio de Janeiro, Brazil). The mice were housed in appropriate cages with free access to food and fresh water in a room with controlled temperature (22–24 °C) with a light/dark cycle of 12 h.
as §1
The same protocol was performed with 6- to 8-week-old BALB/c mice also provided from FIOCRUZ (8 male mice per group). Each group was treated one hour before infection (day zero) i.p. at 100 ng Kg^−1 for five consecutive days. The dose used was similar to that used for Ang II in in vivo studies, as described by Gallego-Delgado et al., 2015. […] After 3 days, parasitemia was evaluated by blood smear from a droplet of blood collected from the lateral tail vein of each animal and colored with the hematological Diff-Quick® kit. The survival of the animals was also monitored daily. […]

| Compound | effect on parasitemia (Plasmodium) | contractile activity (mouse muscle tissue) | SHIRPA behavioral score [1] | mouse survival (Plasmodium berghei ANKA [2]; 100 ng Kg−1 min−1 i.p. daily for 5 days, Kaplan–Meier, log rank vs vehicle, n = 8) | effect on parasitemia (Plasmodium berghei ANKA [2]; 100 ng Kg−1 min−1 i.p. daily until day 4 p.i., blood smear day 3 to 9 p.i., especially at day 9 p.i., vs vehicle) | mouse survival (Plasmodium berghei ANKA [3]; C57BL/6 mice (ECM), 100 ng Kg−1 min−1 i.p. daily for 5 days, Kaplan–Meier, log rank vs vehicle, n = 8) | parasitemia level at day 7 p.i. (Plasmodium berghei ANKA [3]; C57BL/6 mice, 100 ng Kg−1 min−1 i.p. daily until day 4 p.i., first dose 1 h before infection, blood smear, vehicle group reached 18% parasitemia) |
| --- | --- | --- | --- | --- | --- | --- | --- |
| C[C@H](CS)C(=O)N1CCC[C@H]1C(=O)O [captopril] | discrete but significant reduction in parasitemia |  |  |  |  |  |  |
| CDRVYIHPFC (disulfide 1-10 (inferred)) [Ang II-SS, disulfide bridge-constrained derivative of Ang II] |  | did not elicit significant contractile activity | reduced the SHIRPA behavioral score | increased mouse survival | reduced parasitemia | increased mouse survival | approximately 10% |
| CC[C@H](C)[C@H](NC(=O)[C@@H](N)C(C)C)C(=O)N1CCC[C@H]1C(=O)N[C@@H](Cc1ccccc1)C(=O)O [VIPF] (H-VIPF-OH) |  | did not elicit significant contractile activity |  |  |  |  |  |
